Read-outs that look alike come from different tables or passages of the source.
Key:
[1] = set-up: species or system male white mice (CF1); conditions: mouse, in vivo; for ED50 (effective analgesic dose in 50% of the mice), p.o.: po; for ED50 (effective analgesic dose in 50% of the mice), s.c.: sc
kappa receptor [2] = conditions: rat, in vivo; cited from earlier work
kappa receptor [3] = conditions: rat, in vivo

Row | SMILES | ED50 (effective analgesic dose in 50% of the mice), p.o. [1] | ED50 (effective analgesic dose in 50% of the mice), s.c. [1] | further results
1 | COc1cccc2c1CC[C@@H](N1CC=CC1)[C@@H]2N(C)C(=O)Cc1ccc(Cl)c(Cl)c1.Cl (relative stereo) [Example 50, trans-3,4-dichloro-N-methyl-N-[2-(2,5-dihydro-1H-pyrrol-1-yl)-5-methoxy-1,2,3,4-tetrahydronaphth-1-yl]benzeneacetamide hydrochloride] | 3.4 mg/kg | 0.24 mg/kg | –
2 | CN(C(=O)Cc1ccc(Cl)c(Cl)c1)[C@@H]1c2cccc(OC(=O)c3ccccc3)c2CC[C@H]1N1CCCC1.Cl (relative stereo) [Example 16, trans-3,4-dichloro-N-methyl-N-[2-(pyrrolidin-1-yl)-5-benzoyloxy-1,2,3,4-tetrahydronaphth-1-yl]benzeneacetamide hydrochloride] | 10. mg/kg | 0.71 mg/kg | –
3 | CN(C(=O)Cc1ccc(C(F)(F)F)cc1)[C@@H]1c2ccccc2CC[C@H]1N1CCCC1 (relative stereo) [Example 12] | 54. mg/kg | 19. mg/kg | –
4 | CN(C)C(=S)Oc1cccc2c1CC[C@@H](N1CCCC1)[C@@H]2N(C)C(=O)Cc1ccc(Cl)c(Cl)c1.Cl (relative stereo) [Example 68, trans-3,4-dichloro-N-methyl-N-[2-(pyrrolidin-1-yl)-5-(N,N-dimethylthiocarbamoyloxy)-1,2,3,4-tetrahydronaphth-1-yl]benzeneacetamide hydrochloride] | 18. mg/kg | 1.7 mg/kg | –
5 | COCc1c(O)ccc2c1CC[C@@H](N1CCCC1)[C@@H]2N(C)C(=O)Cc1ccc(Cl)c(Cl)c1 (relative stereo) [Example 25] | 54. mg/kg | 0.19 mg/kg | –
6 | CN(C(=O)Cc1ccccc1)[C@@H]1c2ccccc2CC[C@H]1N1CCCC1 (relative stereo) [Example 11] | > 81. mg/kg | 30. mg/kg | –
7 | CN(C(=O)Cc1ccc(Cl)c(Cl)c1)[C@@H]1c2c(ccc3ccccc23)CC[C@H]1N1CCCC1 (relative stereo) [Example 69] | 16. mg/kg | 3.0 mg/kg | –
8 | COCOc1cccc2c1CC[C@@H](N1CCCC1)[C@@H]2N(C)C(=O)Cc1ccc(Cl)c(Cl)c1 (relative stereo) [Example 48] | 13. mg/kg | 4.5 mg/kg | –
9 | CN(C(=O)Cc1ccc(Br)cc1)[C@@H]1c2ccccc2CC[C@H]1N1CCCC1 (relative stereo) [Example 10] | 54. mg/kg | 8.1 mg/kg | –
10 | COc1cccc2c1OC[C@@H](N1CCCC1)[C@@H]2N(C)C(=O)Cc1ccc(Cl)c(Cl)c1.Cl (relative stereo) [Example 20, trans-3,4-dichloro-N-methyl-N-[3,4-dihydro-8-methoxy-3-(pyrrolidin-1-yl)-2H-benzopyran-4yl]benzeneacetamide hydrochloride] | 30. mg/kg | 1.2 mg/kg | –
11 | CN1CC[C@]23c4c5ccc(O)c4O[C@H]2[C@@H](O)C=C[C@H]3[C@H]1C5 [Morphine] | 3.8 mg/kg | 1.0 mg/kg | increase in urine flow, in words (kappa receptor [2]): largely devoid of this property; % increase over control (urine output) (kappa receptor [3]): 48%; increase in urine flow / diuresis, in words (kappa receptor [3]): minimal or no diuresis; mean cumulative urine output at 5 hours (kappa receptor [3]): 1.38 mL; % increase over control (urine output) (kappa receptor [3]; sc): 159%; mean cumulative urine output at 5 hours (kappa receptor [3]; sc): 2.41 mL; toxicity / deaths (kappa receptor [3]; sc): Toxic (2/8 dead)
12 | CN(C(=O)Cc1ccccc1)[C@@H]1c2ccccc2OC[C@H]1N1CCCC1.Cl (relative stereo) [Example 19, trans-N-methyl-N-[3,4-dihydro-3-(pyrrolidin-1-yl)-2H-benzopyran-4-yl]benzeneacetamide hydrochloride] | 36. mg/kg | 1.7 mg/kg | –
13 | CN(C(=O)Cc1ccc(Cl)c(Cl)c1)[C@@H]1c2ccccc2OC[C@H]1N1CCCC1 (relative stereo) [Example 7, trans-3,4-Dichloro-N-methyl-N-[3,4-dihydro-3-(pyrrolidin-1-yl)-2H-benzopyran-4-yl]benzeneacetamide] | 36 mg/kg | 1.7 mg/kg | –
